According to paper PMC8899470 (Frontiers in Pharmacology, 2022):
Several values for one entry are separate records, joined by “and”; a condition that tells them apart may be missing. Equal entries are not always repeated.

What was measured:
[1] = test system: PLpro of MERS-CoV; conditions: ref Cho et al., 2013; cited from earlier work
[2] = test system: PLpro of SARS-CoV; conditions: ref Cho et al., 2013; cited from earlier work
[3] = test system: SARS-CoV; conditions: Vero E6 cells; ref Lin et al., 2018; cited from earlier work
[4] = test system: Vero E6 cells; conditions: cited from earlier work
[5] = biological target: SARS CoV-2 PLpro (Severe acute respiratory syndrome coronavirus 2, UniProt P0DTD1); test: biochemical; type: biochemical; conditions: for IC50: IC50, PLpro 0.3 µM, LKGGAMC substrate 40 µM, Tris-HCl pH 7.3, triplicate

CCN(CC)C(=S)SSC(=S)N(CC)CC [Disulfiram]
Inhibitory effect on PLpro (mode) [1]: competitive inhibitory effect | Inhibitory effect on PLpro (mode) [2]: competitive inhibitory effect

Cc1ccc(N)cc1C(=O)N[C@H](C)c1cccc2ccccc12 [GRL0617]
Inhibition of SARS-CoV replication [3]: inhibit the replication process | Cytotoxicity [4]: no cytotoxicity

Cc1ccc(NC2CCNCC2)cc1C(=O)N[C@H](C)c1cccc2[nH]c3ccccc3c12 [hit 1]
IC50 [5]: 2400 ± 600 nM

CCOC(=O)c1ccc(-c2cccc([C@@H](C)NC(=O)c3cc(NC4CNC4)ccc3C)c2)s1 [hit 2]
IC50 [5]: < 1000 nM and 600 nM | Inhibitory activity relative to positive control GRL0617 ([5]; ratio of IC50 values against PLpro): about 4 times

Cc1ccc(NC2COC2)cc1C(=O)N[C@H](C)c1csc2ccccc12 [hit 3]
IC50 [5]: 2100 ± 500 nM

Cc1ccc(NC2CCN(C(F)(F)F)CC2)cc1C(=O)N[C@H](C)c1cccc2ccccc12 [hit 4]
IC50 [5]: < 1000 nM and 800 nM
